Measured values: patent publication US20100137314A1, “HARMFUL ORGANISM CONTROL COMPOSITION” (priority 2007, published 2010)

Tests used:
[1] = test system: Bemisia tabaci; experiment: Test Example 2: cabbage leaf disc immersion test, life or death of Bemisia tabaci imagoes after 2 days; type: in vivo; conditions: compound X alone 2000 ppm
Protocol: Ten parts of the compound I-(138) was dissolved in 40 parts of xylene and 40 parts of N,N-dimethylformamide, and thereto was added 10 parts of Sorpol 3005X (manufactured by TOHO Chemical Industry Co., LTD.). The mixture was stirred well to prepare a formulation.
The formulation of the compound X prepared in Test Example 1 was diluted with water to a predetermined concentration (2000 ppm). To the water dilution was added the formulation of the compound I-(138) so that the concentration of the compound I became a predetermined concentration (800 ppm). To the resulting dilution was added 1/5000 by volume of a spreading agent (New Rinou manufactured by Nihon Nohyaku) to prepare a test diluted solution.
Separately, the formulation of the compound I-(138) was diluted with water to a predetermined concentration (800 ppm). To the water dilution was added 1/5000 by volume of a spreading agent (New Rinou manufactured by Nihon Nohyaku) to prepare a test diluted solution. […]
On the other hand, 3 mL of 1% agar was put in a glass cup having an internal diameter of 2.6 cm and a height of 4.5 cm. […] After 2 days, the life or death of the Bemisia tabaci imagoes was determined, and a controlling value was calculated by the above-described equation.

[2] = test system: Bemisia tabaci; experiment: Test Example 1: cabbage leaf disc immersion test, life or death of Bemisia tabaci imagoes after 4 days; type: in vivo; conditions: foliar, 96 h, compound X alone 1000 ppm, cabbage leaf disc immersed 30 seconds, read-out: Pest controlling value (%)
Protocol: Ten parts of the compound X was dissolved in 40 parts of xylene and 40 parts of N,N-dimethylformamide, and thereto was added 10 parts of Sorpol 3005X (manufactured by TOHO Chemical Industry Co., LTD.). The mixture was stirred well to prepare a formulation. Separately, 10 parts of any one of the compound I-(5), the compound I-(34), the compound I-(68), the compound I-(70), the compound I-(74), the compound I-(115), the compound I-(117), the compound I-(119), the compound I-(204) and the compound I-(213) was dissolved in 40 parts of xylene and 40 parts of N,N-dimethylformamide, and thereto was added 10 parts of Sorpol 3005X (manufactured by TOHO Chemical Industry Co., LTD.). The mixture was stirred well to prepare a formulation. The formulation of the compound X was diluted with water to a predetermined concentration (1000 ppm). […] After 4 days, the life or death of the Bemisia tabaci imagoes was determined, and a controlling value was calculated by the following equation: […] wherein Cb: the number of insects in a non-treated section before treatment, Cai: the number of insects in a non-treated section on observation, Tb: the number of insects in a treated-section before treatment, Tai: the number of insects in a treated section on observation. […]

SMILES: CC#CCOc1cc(Cc2ccccc2Cl)ncn1 [compound X, 4-(2-chlorobenzyl)-6-(2-butynyloxy)pyrimidine]
- Pest controlling value (%) [1]: 26%
- pest or weed control at 1000 ppm [2]: 25%
